The test system of test [1] is vascularized heart allograft. The test is described as follows: Vascularized heart allograft survival, C57BL/6 into BALB/c recipients. In kind it is in vivo, mouse. The source says:
Fully vascularized hearts were grafted into the abdomen of recipient mice as described (Corry, R. J., H. J. Winn, and P. S. Russell. Primarily vascularized allografts of hearts in mice. The role of H-2D, H-2K, and non-H-2 antigens in rejection. Transplantation. 1973, 16:343). Graft survival was monitored by palpation and rejection was confirmed by direct graft inspection.

A further test deals with aortic allografts. The test is described as follows: Aortic allograft chronic rejection: intimal thickening / luminal reduction. In kind it is in vivo, mouse. Conditions: 0.03 μg/kg p.o. five times per week day 0 to day 30; grafts analysed 60 days after transplantation; vehicle >60%. The protocol: Mice: BALB/c and C57BL/6 (B6) male mice, weighing 22-24 g, were purchased from Charles River Laboratories (Calco, Italy), and kept under specific pathogen-free conditions. B6 (H-2^b) mice were used as donors and BALB/c (H-2^d) as recipients of aortic allografts.
Aorta transplantation: The entire procedure was performed according to Koulack et al. Development of a mouse aortic transplant model of chronic rejection Microsurgery 1995; 16: 110-3, with the modification described by Hong et al. Improved surgical technique for the establishment of a murine model of aortic transplantation. Microsurgery 1998; 18: 368-71. […]
Determination of luminal reduction: Luminal reduction was assessed in 5 μm-thick frozen transverse aortic sections stained with hematoxylin and eosin obtained 60 days post transplantation. To quantify morphological changes in the graft, we used a Leica DC camera (Leica IM 1000 image manager) to acquire the image, and the Leica Qwin software to calculate the luminal reduction percentage. […]
Statistical analysis: Numerical data are expressed as mean ±SD. Data on percent luminal reduction were analysed by a non parametric Students's t-test.
The effect of Compound A in preventing chronic rejection was evaluated using the aortic graft model in the mouse. […] Aortic grafts were analyzed 60 days after transplantation.

Bounds are passed on as bounds.

For the compound `C[C@H](C/C=C\C(O)(C(F)(F)F)C(F)(F)F)C1=CC[C@H]2/C(=C/C=C3C[C@@H](O)C[C@H](O)C3)CCC[C@]12C` [Compound A, 1,25-dihydroxy-16,23Z-diene-26,27-hexafluoro-19-nor vitamin D3], the “Graft survival (days) Mean” value in test [1] (0.01 μg/kg po (d-1, 0, +1) then 0.003 μg/kg po (d+2 until d+30)) was 12.00 days; in test [1] (0.1 μg/kg po (d-1, 0, +1) then 0.03 μg/kg (d+2 until d 15)), 38.20 days. Further, the intimal thickening in the test on aortic allografts is given as below 20%.

The values above are taken from US20040214803A1, “Use of vitamin d3 analogue for the treatment of autoimmune diabetes” (priority 2001, published 2004).
